According to article PMC9120017, “Inhibition mechanism of the chloride channel TMEM16A by the pore blocker 1PBC” (Nature Communications, 2022):
Like-named read-outs stand apart in the source and are kept apart here.

Target: T1, wild-type mouse TMEM16A (Mus musculus, UniProt Q8BHY3)
T1 construct: expressed in transfected cells; host or cells: HEK293T
T1 sequence (Q8BHY3 1-960): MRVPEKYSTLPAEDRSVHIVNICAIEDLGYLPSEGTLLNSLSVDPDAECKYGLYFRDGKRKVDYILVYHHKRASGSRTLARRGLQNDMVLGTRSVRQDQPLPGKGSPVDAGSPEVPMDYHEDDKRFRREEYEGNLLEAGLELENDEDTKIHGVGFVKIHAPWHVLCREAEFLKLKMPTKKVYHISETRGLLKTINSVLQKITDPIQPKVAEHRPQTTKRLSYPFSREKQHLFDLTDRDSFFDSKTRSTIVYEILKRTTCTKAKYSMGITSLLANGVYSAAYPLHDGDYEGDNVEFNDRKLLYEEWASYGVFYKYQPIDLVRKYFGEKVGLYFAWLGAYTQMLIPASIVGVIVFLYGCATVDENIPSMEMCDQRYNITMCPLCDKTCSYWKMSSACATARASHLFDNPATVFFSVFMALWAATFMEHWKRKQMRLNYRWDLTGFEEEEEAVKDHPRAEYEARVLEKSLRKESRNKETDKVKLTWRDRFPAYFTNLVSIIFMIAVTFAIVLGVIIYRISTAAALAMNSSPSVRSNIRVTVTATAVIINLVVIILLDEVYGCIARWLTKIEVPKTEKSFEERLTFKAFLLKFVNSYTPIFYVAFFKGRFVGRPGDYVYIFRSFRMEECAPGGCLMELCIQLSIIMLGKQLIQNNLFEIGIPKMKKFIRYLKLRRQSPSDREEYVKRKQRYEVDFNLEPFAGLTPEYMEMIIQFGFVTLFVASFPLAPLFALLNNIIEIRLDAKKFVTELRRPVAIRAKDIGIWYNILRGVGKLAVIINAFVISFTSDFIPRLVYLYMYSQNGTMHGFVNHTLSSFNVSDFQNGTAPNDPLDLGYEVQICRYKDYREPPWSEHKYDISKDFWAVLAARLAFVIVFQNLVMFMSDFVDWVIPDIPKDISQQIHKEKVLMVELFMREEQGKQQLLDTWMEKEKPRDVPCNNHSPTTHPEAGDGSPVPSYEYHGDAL
Test: Inside-out patch recording of 1PBC block, wild-type TMEM16A
Type: cell-based
Settings: for remaining activity at 100 µM: read-out: I/Imax
Description: HEK293T cells (ATCC CRL-1573) were maintained in Dulbecco’s modified Eagle’s medium (DMEM; Sigma-Aldrich) supplemented with 10 U ml^−1 penicillin, 0.1 mg ml^−1 streptomycin (Sigma-Aldrich), 2 mM L-glutamine (Sigma-Aldrich), and 10% FBS (Sigma-Aldrich) in a humidified atmosphere containing 5% CO2 at 37 °C. HEK293S GnTI^− cells (ATCC CRL-3022) were maintained in HyClone HyCell TransFx-H medium (GE Healthcare) supplemented with 10 U ml^−1 penicillin, 0.1 mg ml^−1 streptomycin, 4 mM L-glutamine, 0.15% poloxamer 188 (Sigma-Aldrich), and 1% FBS in an atmosphere containing 5% CO2 at 185 rpm at 37 °C. The ac splice variant of mouse TMEM16A (UniProt ID: Q8BHY3), mouse TMEM16B (UniProt ID: Q8CFW1), or mouse TMEM16F (UniProt ID: Q6P9J9) bearing a 3C cleavage site, a Venus YFP, a Myc tag, and a Streptavidin-binding peptide (SBP) downstream of the open reading frame in a modified pcDNA3.1 vector (Invitrogen) were used as described previously[21],[31]. Mutations were introduced using a modified QuikChange method[58] and were verified by sequencing.
HEK293T cells were transfected with 3–4 μg DNA per 6 cm Petri dish using the calcium phosphate co-precipitation method and were used within 24–96 h after transfection. Recordings were performed on inside-out patches excised from HEK293T cells expressing the construct of interest. Patch pipettes were pulled from borosilicate glass capillaries (O.D. 1.5 mm, I.D. 0.86 mm, Sutter Instrument) and were fire-polished with a microforge (Narishige) before use. Pipette resistance was typically 3–8 MΩ when filled with the recording solutions detailed below. Seal resistance was typically 4 GΩ or higher. Voltage-clamp recordings were made using Axopatch 200B, Digidata 1550, and Clampex 10.7 (Molecular Devices). Analog signals were filtered with the in-built 4-pole Bessel filter at 10 kHz and were digitized at 20 kHz. Solution exchange was achieved using a gravity-fed system through a theta glass pipette mounted on an ultra-fast piezo-driven stepper (Siskiyou). […] All recordings were performed at 20 °C.
A symmetrical ionic condition was used throughout. Stock solution with Ca^2+-EGTA contained 150 mM NaCl, 5.99 mM Ca(OH)2, 5 mM EGTA, and 10 mM HEPES at pH 7.40. Stock solution with EGTA contained 150 mM NaCl, 5 mM EGTA, and 10 mM HEPES at pH 7.40. Free Ca^2+ concentrations were adjusted by mixing the stock solutions at the required ratios calculated using the WEBMAXC program (http://web.stanford.edu/~cpatton/webmaxcS.htm). Patch pipettes were filled with the stock solution with Ca^2+-EGTA, which has a free Ca^2+ concentration of 1 mM. 1PBC (ChemBridge) stock was reconstituted in anhydrous DMSO (Sigma-Aldrich) at 100 mM and stored at −20 °C. Working solutions with 1PBC were prepared by serial dilution. Unless otherwise stated, experiments were performed at a saturating Ca^2+ concentration as shown in Supplementary Table 1 and the primary data were corrected for current rundown as described previously[21],[25].
Concentration-response relations, obtained from the ratio of the I-V plots before and after the application of the blocker, were fitted to the Hill equation,1 I/Imax=1/1+IC50/[blocker]^h where I/Imax is the normalized current responses, IC50 defines the concentration at which inhibition is at its half-maximum, and h is the Hill coefficient.

[1] = 100 µM 1PBC, -100 mV, 2 µM Ca2+
[2] = 100 µM 1PBC, -120 mV, 2 µM Ca2+
[3] = 100 µM 1PBC, -140 mV, 2 µM Ca2+

I/Imax scaled to open probability (100 µM 1PBC, 2 µM Ca2+, 80 mV): 0.02162
Steady-state current (normalized) (100 µM 1PBC, 20 mV, 2 µM Ca2+): 0.006925
remaining activity at 100 µM (100 µM 1PBC, 20 mV, 2 µM Ca2+): 3.56%
Steady-state current (normalized) (100 µM 1PBC, 40 mV, 2 µM Ca2+): 0.0112
remaining activity at 100 µM (100 µM 1PBC, 40 mV, 2 µM Ca2+): 2.97%
Steady-state current (normalized) (100 µM 1PBC, 60 mV, 2 µM Ca2+): 0.0148
remaining activity at 100 µM (100 µM 1PBC, 60 mV, 2 µM Ca2+): 2.68%
Steady-state current (normalized) (100 µM 1PBC, 80 mV, 2 µM Ca2+): 0.01763
remaining activity at 100 µM (100 µM 1PBC, 80 mV, 2 µM Ca2+): 2.49%
Steady-state current (normalized) (100 µM 1PBC, 100 mV, 2 µM Ca2+): 0.02038
remaining activity at 100 µM (100 µM 1PBC, 100 mV, 2 µM Ca2+): 2.4%
Steady-state current (normalized) (100 µM 1PBC, 120 mV, 2 µM Ca2+): 0.024
remaining activity at 100 µM (100 µM 1PBC, 120 mV, 2 µM Ca2+): 2.47%
Steady-state current (normalized) (100 µM 1PBC, 140 mV, 2 µM Ca2+): 0.02832
remaining activity at 100 µM (100 µM 1PBC, 140 mV, 2 µM Ca2+): 2.6%
Steady-state current (normalized) (100 µM 1PBC, -20 mV, 2 µM Ca2+): -0.01026
remaining activity at 100 µM (100 µM 1PBC, -20 mV, 2 µM Ca2+): 5.33%
Steady-state current (normalized) (100 µM 1PBC, -40 mV, 2 µM Ca2+): -0.02602
remaining activity at 100 µM (100 µM 1PBC, -40 mV, 2 µM Ca2+): 6.7%
Steady-state current (normalized) (100 µM 1PBC, -60 mV, 2 µM Ca2+): -0.04778
remaining activity at 100 µM (100 µM 1PBC, -60 mV, 2 µM Ca2+): 8.25%
Steady-state current (normalized) (100 µM 1PBC, -80 mV, 2 µM Ca2+): -0.07707
remaining activity at 100 µM (100 µM 1PBC, -80 mV, 2 µM Ca2+): 10%
Steady-state current (normalized) [1]: -0.1118
remaining activity at 100 µM [1]: 11.8%
Steady-state current (normalized) [2]: -0.1551
remaining activity at 100 µM [2]: 13.9%
Steady-state current (normalized) [3]: -0.2042
remaining activity at 100 µM [3]: 15.9%
IC50 (20 mV, 2 µM Ca2+): 3.42 µM
IC50 (40 mV, 2 µM Ca2+): 2.77 µM
IC50 (60 mV, 2 µM Ca2+): 2.32 µM
IC50 (80 mV, 2 µM Ca2+): 2.06 µM
IC50 (100 mV, 2 µM Ca2+): 2 µM
IC50 (120 mV, 2 µM Ca2+): 2.1 µM
IC50 (140 mV, 2 µM Ca2+): 2.41 µM
IC50 (-20 mV, 2 µM Ca2+): 5.63 µM
IC50 (-40 mV, 2 µM Ca2+): 7.34 µM
IC50 (-60 mV, 2 µM Ca2+): 9.2 µM
IC50 (-80 mV, 2 µM Ca2+): 11.6 µM
IC50 (-100 mV, 2 µM Ca2+): 14.1 µM
IC50 (-120 mV, 2 µM Ca2+): 17.2 µM
IC50 (-140 mV, 2 µM Ca2+): 19.9 µM
Electrical distance of 1PBC block (functional experiments): 0.2-0.25
Membrane permeability (neutral pH, implied from block from the extracellular side after intracellular application): freely membrane-permeable
IC50 (zero mV, saturating Ca2+ concentration (2 µM), applied from the intracellular side): ~4 µM
Structure (SMILES): N#Cc1c(C(F)(F)F)cc(O)n2c1nc1ccccc12 [1PBC]
Selectivity for anion channels of the TMEM16 family over the scramblase TMEM16F (TMEM16A and TMEM16B blocked, TMEM16F current not): selective for anion channels of the TMEM16 family over the scramblase TMEM16F
